# Experimental data taken from patent EP4813985A1, “PREPARATION OF QUINAZOLINONE DERIVATIVE AS KINASE INHIBITOR, AND USE THEREOF” (Xizang Haisco Pharmaceutical Co., Ltd., priority 2023, dated 2025).
# pIC50: −log10 of the molar value. Read-outs that look alike come from different tables or passages of the source.
# Assays:
# [1] = test system: A375 cells; assay: A375 cell proliferation inhibition test; assay type: cell-based; details: Homo sapiens, A-375, 72 h; for IC50: Inhibitory activities of compounds on A375 cells, read-out: IC50/nM; for pIC50: A375 cells, values in text, read-out: IC50
# Protocol: A375 cells (ATCC, CRL-1619) were cultured in DMEM complete medium (+10% FBS) in a CO2 incubator at 37°C for 48 h. The cells were trypsinised and counted, and then the density was adjusted to 1.67 × 10^4 cells/mL. 90 µL (1500 cells) of cells were inoculated into each well of a 96-well transparent bottom plate, and the plate was transferred to a CO2 incubator and the cells were cultured at 37°C overnight. After the cells were incubated overnight, 10 µL of the diluted compound (final concentration starting from 10 µM, 3-fold dilution, 11 concentrations) was added to each well using a multi-channel pipette. The […] control was a serum-free medium containing DMSO. After mixing evenly, the cells were placed in a CO2 incubator at 37°C for 72 h. After the incubation, the CellCounting-Lite®2.0 kit detection solution (Vazyme, DD1101-03) was taken out and returned to room temperature. 100 µL of CellCounting-Lite2.0 detection solution was added to each well, the plate was sealed with a sealing film, and the plate was placed on a shaker for shaking for 15 min (the whole process should be kept away from light). The Luminescence module of the microplate reader (BMG LRBTECH) was used to detect the fluorescence signal value LUM of each well. The formula Inhibition rate% = ((LUM Solvent−LUM Compound)/(LUM Solvent))∗100% [formula] was used to calculate the inhibition rate of the compound. The Graphpad software log(inhibitor) vs. response -- Variable slope (four parameters) equation was used to perform fitting analysis and calculate the IC50value of the sample. The ordinate of the data is the percentage of inhibition rate, and the abscissa is the logarithm of the sample concentration (Log10).
# [2] = Pharmacokinetic test in mice; assay type: in vivo, ICR mice; details: mouse, plasma; for Vd: read-out: Vdss
# Protocol: 3.1 Experimental animals: Male ICR mice, 20-25 g, 6 mice/compound, purchased from Chengdu Dossy Experimental Animals Co., Ltd.
# 3.2 Experimental design: On the day of the experiment, the ICR mice were randomly grouped according to their body weights. The animals were fasted with water available for 12-14 h one day before the administration, and were fed 4 h after the administration. Table 3.1 Administration information
# vehicle for intravenous administration: 5% DMA + 5% Solutol + 90% Saline; vehicle for intragastric administration: 0.5% MC
# Before and after administration, 0.06 mL of blood was taken from the orbit under isoflurane anaesthesia and placed in an EDTAK2 centrifuge tube. The tube was centrifuged at 5000 rpm at 4°C for 10 min, and plasma was collected. The blood sampling time points for both the intravenous administration group and intragastric administration group were 0 min, 5 min, 15 min, 30 min, 1 h, 2 h, 4 h, 7 h, 24 h, and 48 h. Before analysis and detection, all samples were stored at -80°C, and the samples were quantitatively analysed by LC-MS/MS. Table 3.2 Pharmacokinetic parameters of test compounds in plasma of mice
# [3] = Liver microsomal stability test (monkey liver microsomal model); assay type: in vitro ADME; details: monkey liver microsomes, 1 µM test compound, NADPH, 37°C
# Protocol: In this experiment, liver microsomes of five species, including human, monkey, dog, rat and mouse, were used as in vitro models to evaluate the metabolic stability of the test compound.
# At 37°C, 1 µM of the test compound was co-incubated with microsomal protein and coenzyme NADPH. At given time points of the reaction (5 min, 10 min, 20 min, 30 min, and 60 min), the reaction was terminated by adding ice-cold acetonitrile containing an internal standard. The LC-MS/MS method was used to measure the concentration of the test compound in the sample. T1/2 was calculated using the ln value of the percentage of drug remaining in the incubation system and the incubation time. In addition, the intrinsic clearance in liver microsomes CLint(mic) and the intrinsic clearance in liver CLint(Liver) were further calculated. Table 6 Results of test compounds in monkey liver microsomal model
# [4] = target: T1, BRAFV600E (Homo sapiens, UniProt P15056, V600E); assay: BRAFV600E enzyme activity test (ADP-Glo, MEK1K97R substrate); assay type: biochemical; details: Inhibitory activities of compounds on BRAFV600E
# T1 construct: purchased ABCAM ab204154
# Protocol: BRAFV600E (ABCAM, ab204154) and MEK1K97R (USBio, M2865-06J) proteins were diluted at an appropriate dilution factor using 1×Assay buffer (PH = 7.4 Tris-HCl buffer, supplemented with 10 mM MgCl2) such that the final concentration of BRAFV600E was 10 ng/µL and the final concentration of substrate MEK1K97R was 1 µM. 1 µL of BRAFV600E, 1 µL of compound serial dilution (final concentration starting from 2 µM, 5-fold dilution, 8 concentrations), and 6 µL of Assay buffer were pipetted to a 384-well reaction plate with a capacity of 20 µL. The plate was pre-incubated in a constant temperature incubator at 37°C for 30 min. 1 µL of 200 µM ATP and 1 µM MEK1 K97R were added to the reaction wells corresponding to the compound incubation, and mixed evenly by shaking, and preincubation was performed in a constant temperature incubator at 37°C for 60 min for enzymatic reaction. After the reaction was completed, 5 µL of the above reaction product was pipetted to another 384-well plate, and 5 µL of formulated ADP-Glo™ Reagent (Promega, V9101) was added and mixed evenly by pipetting, and then the plate was placed at room temperature for 40 min. 10 µL Kinase Detection Reagent was added to the 384-well plate and incubated at room temperature for 40 min. Finally, a microplate reader (BMG LRBTECH) was used and Luminescence module was selected to detect the LUM fluorescence value of each well (the gain value was fixed at 3600), and the formula Inhibition rate% = (1−(LUM Compound−LUM Background)/(LUM Solvent−LUM Background))∗100% [formula] was used to calculate the inhibition rate of the compound on BRAFV600E. The Graphpad software log(inhibitor) vs. response -- Variable slope (four parameters) equation was used to perform fitting analysis and calculate the IC50value of the sample.
# [5] = Pharmacokinetic test in mice; assay type: in vivo, ICR mice; details: i.g. (10 mg/kg), relative to Control compound 1
# [6] = Pharmacokinetic test in rats; assay type: in vivo, SD rats; details: rat, plasma; for Vd: read-out: Vdss
# Protocol: 5.1 Experimental animals: Male SD rats, about 220 g, 6-8 weeks old, 6 rats/compound, purchased from Chengdu Dossy Experimental Animals Co., Ltd.
# 5.2 Experimental design: On the day of the experiment, the SD rats were randomly grouped according to their body weights. The animals were fasted with water available for 12-14 h one day before the administration, and were fed 4 h after the administration.
# 5.3 Test compounds: compounds in the examples and control compounds. Table 5.1 Administration information
# Before and after administration, 0.1 ml of blood was taken from the orbit under isoflurane anaesthesia and placed in an EDTAK2 centrifuge tube. The tube was centrifuged at 5000 rpm at 4°C for 10 min, and plasma was collected. Blood sampling time points for the intravenous administration group: 0 min, 5 min, 15 min, 30 min, 1 h, 2 h, 4 h, 6 h, 8 h, 24 h, and 48 h; blood sampling time points for the intragastric administration group: 0 min, 5 min, 15 min, 30 min, 1 h, 2 h, 4 h, 6 h, 8 h, 24 h, and 48 h. Before analysis and detection, all samples were stored at -80°C, and the samples were quantitatively analysed by LC-MS/MS. Table 5.2 Pharmacokinetic parameters of test compounds in plasma of rats
# T1 sequence (P15056 416-766 V600E limits assumed): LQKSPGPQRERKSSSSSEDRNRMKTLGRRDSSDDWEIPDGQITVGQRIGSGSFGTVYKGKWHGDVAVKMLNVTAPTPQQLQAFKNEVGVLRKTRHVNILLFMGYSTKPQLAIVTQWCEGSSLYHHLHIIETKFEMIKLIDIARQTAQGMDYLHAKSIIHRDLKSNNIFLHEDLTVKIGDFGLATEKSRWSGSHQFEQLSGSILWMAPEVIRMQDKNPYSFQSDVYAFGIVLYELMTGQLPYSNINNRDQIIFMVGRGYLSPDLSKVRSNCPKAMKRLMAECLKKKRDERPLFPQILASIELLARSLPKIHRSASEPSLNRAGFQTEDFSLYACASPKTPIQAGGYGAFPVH
structure (smiles),measurement,setting,value
"N#Cc1c(NS(=O)(=O)N2CCC(=CF)C2)ccc(F)c1Oc1ccc2ncn(CC(F)F)c(=O)c2c1 (single isomer, unassigned) [Compound 15]",IC50,[1],≤ 10 nM
Cc1nnc2c3cc(Oc4c(F)ccc(NS(=O)(=O)N5CC6(CCC6)C5)c4C#N)ccc3ncn12 [Compound 1],IC50,[1],≤ 10 nM
N#Cc1c(NS(=O)(=O)N2CC3(CCC3)C2)ccc(F)c1Oc1ccc2ncc(N3CCOCC3)nc2c1 [Compound 2],IC50,[1],10 to 50 nM
C=C1CN(S(=O)(=O)Nc2ccc(F)c(Oc3ccc4ncn(CC(F)F)c(=O)c4c3)c2C#N)C1 [Compound 3],AUC(0-t),"[2]; iv, i.v. (2.5 mg/kg)",225 µg·h/mL
same,clearance,"[2]; iv, i.v. (2.5 mg/kg)",0.186 mL/min/kg
same,half-life,"[2]; iv, i.v. (2.5 mg/kg)",8.68 h
same,Vd,"[2]; iv, i.v. (2.5 mg/kg)",0.112 L/kg
same,bioavailability,"[2]; po, i.g. (10 mg/kg)",84.5%
same,AUC(0-t),"[2]; po, i.g. (10 mg/kg)",762 µg·h/mL
same,half-life,"[2]; po, i.g. (10 mg/kg)",10.3 h
same,Percentage of drug remaining after 60 min of incubation,[3],56.1%
same,pIC50,[1],9.85
same,IC50,[1],≤ 10 nM
same,IC50,[4],≤ 10 nM
same,Fold change in brain-blood ratio relative to control compound,[5],10.8
same,AUC(0-t),"[6]; iv, i.v. (2.5 mg/kg)",41 µg·h/mL
same,clearance,"[6]; iv, i.v. (2.5 mg/kg)",0.091 mL/min/kg
same,half-life,"[6]; iv, i.v. (2.5 mg/kg)",19.1 h
same,Vd,"[6]; iv, i.v. (2.5 mg/kg)",0.126 L/kg
same,bioavailability,"[6]; po, i.g. (10 mg/kg)",62.8%
same,AUC(0-t),"[6]; po, i.g. (10 mg/kg)",1030 µg·h/mL
same,half-life,"[6]; po, i.g. (10 mg/kg)",13.9 h
CC(C)=C1CN(S(=O)(=O)Nc2ccc(F)c(Oc3ccc4ncn(CC(F)F)c(=O)c4c3)c2C#N)C1 [Compound 4],IC50,[1],10 to 50 nM
C=C1CN(S(=O)(=O)Nc2ccc(F)c(Oc3ccc4ncn(CCF)c(=O)c4c3)c2C#N)C1 [Compound 5],IC50,[1],≤ 10 nM
C=C1CCN(S(=O)(=O)Nc2ccc(F)c(Oc3ccc4ncn(CC(F)F)c(=O)c4c3)c2C#N)C1 [Compound 6],AUC(0-t),"[2]; in vivo, iv, i.v. (2.5 mg/kg)",148 µg·h/mL
same,clearance,"[2]; in vivo, iv, i.v. (2.5 mg/kg)",0.282 mL/min/kg
same,half-life,"[2]; in vivo, iv, i.v. (2.5 mg/kg)",6.77 h
same,Vd,"[2]; in vivo, iv, i.v. (2.5 mg/kg)",0.118 L/kg
same,AUC(0-t),"[2]; in vivo, po, i.g. (10 mg/kg)",373 µg·h/mL
same,half-life,"[2]; in vivo, po, i.g. (10 mg/kg)",4.47 h
same,IC50,[1],≤ 10 nM
same,Fold change in brain-blood ratio relative to control compound,[5],24.9
CC=C1CN(S(=O)(=O)Nc2ccc(F)c(Oc3ccc4ncn(CC(F)F)c(=O)c4c3)c2C#N)C1 [Compound 7],AUC(0-t),"[2]; iv, i.v. (2.5 mg/kg)",228 µg·h/mL
same,clearance,"[2]; iv, i.v. (2.5 mg/kg)",0.171 mL/min/kg
same,half-life,"[2]; iv, i.v. (2.5 mg/kg)",12.8 h
same,Vd,"[2]; iv, i.v. (2.5 mg/kg)",0.156 L/kg
same,bioavailability,"[2]; po, i.g. (10 mg/kg)",90.6%
same,AUC(0-t),"[2]; po, i.g. (10 mg/kg)",825 µg·h/mL
same,half-life,"[2]; po, i.g. (10 mg/kg)",10.7 h
same,Percentage of drug remaining after 60 min of incubation,[3],48.2%
same,pIC50,[1],9.18
same,IC50,[1],≤ 10 nM
same,IC50,[4],≤ 10 nM
same,Fold change in brain-blood ratio relative to control compound,[5],10.5
same,AUC(0-t),"[6]; iv, i.v. (2.5 mg/kg)",376 µg·h/mL
same,clearance,"[6]; iv, i.v. (2.5 mg/kg)",0.109 mL/min/kg
same,half-life,"[6]; iv, i.v. (2.5 mg/kg)",14.2 h
same,Vd,"[6]; iv, i.v. (2.5 mg/kg)",0.096 L/kg
same,bioavailability,"[6]; po, i.g. (10 mg/kg)",81.3%
same,AUC(0-t),"[6]; po, i.g. (10 mg/kg)",1220 µg·h/mL
same,half-life,"[6]; po, i.g. (10 mg/kg)",13.5 h
C=C1CC(Cn2cnc3ccc(Oc4c(F)ccc(NS(=O)(=O)N5CC6(CCC6)C5)c4C#N)cc3c2=O)C1 [Compound 9],IC50,[1],10 to 50 nM
